From patent publication EP2489663A1, “Compounds as syk kinase inhibitors” (Almirall, S.A., priority 2011, dated 2012)
pIC50: −log10 of the molar value.

Key:
[1] = target: T1, human full-length Syk (Homo sapiens, UniProt P43405); experiment: Syk Enzyme assay - Radioactive filtration kinase assay; assay type: biochemical; conditions: recombinant human full-length Syk 1 nM, poly-GT substrate, [γ-33P] ATP, 40 min room temperature
T1 construct: Recombinant human full-length Syk was supplied by Millipore; purchased Millipore
Description: Syk Enzyme assay- Radioactive filtration kinase assay
Recombinant human full-length Syk was supplied by Millipore. The activity of Syk kinase was assessed using a radioactive filtration kinase assay.
10 µL of substrate poly-GT (100 µg/mL final) and 4 µl of Syk (1 nM final) in 50 mM Tris-HCl (pH 7.5), 0.1 mM EGTA, 4 mM Mg(CH3COO)2, 0.1 mM Na3VO4, 0.1% (v/v) β-mercaptoethanol, 0.133 mg/mL BSA (bovine serum albumin) were added to 1.5 µl of various concentrations of compound or DMSO vehicle (5% final). The reaction was initiated by the addition of 14.5 µL of 0.36 µCi [γ-^33P] ATP (adenosine tri-phosphate) (10 mCi/ml, PerkinElmer). This was prepared in a half-area NBS plate (Corning) and allowed to stand at room temperature for 40 min.
15 µL of reaction mixture was transferred to a filter plate (Millipore) previously prewetted with a solution of 75 mM phosphoric acid. The reaction was terminated with the addition of 200 µL phosphoric acid. The filter plate was washed three times under vacuum on a vacuum manifold (Millipore cat# MSVMHTS00) at 8" Hg vacuum level with 200 µL phosphoric acid per wash.
30 µL Optiphase™ Supermix (PerkinElmer) was added to each test well and allowed to incubate for at least 1 h before counting. Radioactivity counting was performed in a Wallac MicroBeta®, and the tyrosine phosphorylation activity by Syk was calculated.

[2] = tested on: LAD2 cells; experiment: LAD2 cells assay (mast cell degranulation, β-hexosaminidase release); assay type: cell-based; conditions: Homo sapiens, 0.5 h; biotin-labeled IgE sensitized LAD2 cells, compound 30 min, activated with 125 ng/mL streptavidin 30 min, released β-hexosaminidase
Source text: LAD2 is a human mast cell line depending on stem cell factor for its survival, maturation and differentiation. This mast cell line was established by the NIH from bone marrow aspirates from a patient with mast cell sarcoma. LAD2 cells resemble CD34+ - derived human mast cells as they have granules containing tryptase, histamine and β-hexosaminidase. They also express c-kit and FcεRI (Kirshenbaum, et al., Leukemia Research 27: 677-682, 2003).
Sensitization of LAD2 cells
Cells were sensitized (0.2x10^6 cells/mL) in its normal growth factor (Complete StemPro-34 SFM, Gibco 10639-011 containing StemPro-34 nutrient supplement (1/40); glutamine (2 mM) and supplemented with 100 ng/ml SCF) by adding 100 ng/mL of biotin-labeled IgE (USBiological) overnight (16-18 h, 37º, 5% CO2) in a humidified atmosphere (90%).
Compounds were prepared from a 10^-2M stock in 100% DMSO to give seven successive 1/3 dilutions in DMSO. From each concentration, 2 further 1/10 dilutions were prepared in release buffer (137 mM NaCl, 2.70 mM KCI, 0.4 mM NaH2PO4, 5.6 mM (D)-glucose, 1.8 mM CaCl2, 1.3 mM MgSO4, 0.025% BSA). Finally, 5 µl from each diluted concentration were transferred into the assay plate (flat 96-well Nunc). The final compound concentrations tested ranged from 1x10^-5M to 4.12x10^-9M with a final proportion of DMSO in the assay of 0.1%. Control wells were treated with 0.1 % DMSO.
Sensitized LAD2 cells were centrifuged (300 g, 3 min, R.T.) and washed 2 times with release buffer. Cells were resuspended in release buffer and adjusted to a density of 0.2x10^6/mL. 45 µL of the adjusted cells were transfered to the assay plate (∼10,000cells/well) containg 5 µL of the final compound concentrations. LAD2 cells were incubated with the compound for 30 min (37 °C, 5% CO2 90% of humidity) and then activated with 125 ng/mL of streptavidin (Pierce 21125) for 30 min (37°C, 5% CO2, 90% of humidity). After the activation, cells were centrifuged at 1200 g, 10 min, 12 °C and supernatats were removed and transfered to another well for determination of released β-hexosaminidase. Empty wells were filled with 50 µL of release buffer for determination of intracellular β-hexosaminidase. Cells were lysed with 2 cycles of freeze-thaw.
Cells were incubated for 90 minutes, 37 °C with 1 mM β-hexosaminidase substrate (p-nitrophenyl N-acetyl-D-glucosamide, in citric buffer, pH 4.5). Reaction was stopped with 0.4 M glycine solution (pH 10.0) and the plate is read immediately at 405 nm.

Compound | pIC50 [1] | pIC50 [2]
c1ccc2c(c1)c(Nc1cnccn1)nn2-c1ccnc(N2CCCNCC2)c1 [Example 8, 1-[2-(1,4-Diazepan-1-yl)pyridin-4-yl]-N-pyrazin-2-yl-1H-indazol-3-amine] | 7.77 | –
c1ccc2c(c1)c(Nc1cnccn1)nn2-c1ccnc(N2C[C@@H]3C[C@H]2CN3)c1 [Example 10, 1-{2-[(1S,4S)-2,5-Diazabicyclo[2.2.1]hept-2-yl]pyridin-4-yl}-N-pyrazin-2-yl-1H-indazol-3-amine] | 8.13 | 7.26
Nc1ccc2c(Nc3cnccn3)nn(-c3ccnc(N4C[C@@H]5C[C@H]4CN5)c3)c2c1 [Example 12, 1-{2-[(1S,4S)-2,5-Diazabicyclo[2.2.1]hept-2-yl]pyridin-4-yl}-N^3-pyrazin-2-yl-1H-indazole-3,6-diamine] | 8.60 | 6.78
O=C(c1ccc2c(Nc3cnccn3)nn(-c3ccnc(N4C[C@@H]5C[C@H]4CN5)c3)c2c1)N1CCCCC1 [Example 21, 1-{2-[(1S,4S)-2,5-Diazabicyclo[2.2.1]hept-2-yl]pyridin-4-yl}-6-(piperidin-1-ylcarbonyl)-N-pyrazin-2-yl-1H-indazol-3-amine] | 7.98 | 6.47
O=S(=O)(Nc1ccc2c(Nc3cnccn3)nn(-c3ccnc(N4C[C@@H]5C[C@H]4CN5)c3)c2c1)c1ccccc1 [Example 30, N-[1-{2-[(1S,4S)-2,5-Diazabicyclo[2.2.1]hept-2-yl]pyridin-4-yl}-3-(pyrazin-2-ylamino)-1H-indazol-6-yl]benzenesulfonamide] | 7.70 | –
COc1ccc2c(Nc3cnccn3)nn(-c3ccnc(N4C[C@@H]5C[C@H]4CN5)c3)c2c1 [Example 31, 1-{2-[(1S,4S)-2,5-Diazabicyclo[2.2.1]hept-2-yl]pyridin-4-yl}-6-methoxy-N-pyrazin-2-yl-1H-indazol-3-amine] | 8.10 | 6.95
Cc1nc(N2C[C@@H]3C[C@H]2CN3)cc(-n2nc(Nc3cnccn3)c3ccccc32)n1 [Example 42, 1-{6-[(1S,4S)-2,5-Diazabicyclo[2.2.1]hept-2-yl]-2-methylpyrimidin-4-yl}-N-pyrazin-2-yl-1H-indazol-3-amine] | 8.05 | 6.60
C[C@H]1CNCCN1c1cc(-n2nc(Nc3cnccn3)c3ccccc32)ccn1 [Example 50, 1-{2-[(2S)-2-methylpiperazin-1-yl]pyridin-4-yl}-N-pyrazin-2-yl-1H-indazol-3-amine] | 7.96 | 7.10
Cc1ccc2c(Nc3cnccn3)nn(-c3ccnc(N4C[C@@H]5C[C@H]4CN5)c3)c2c1 [Example 55, 1-{2-[(1S,4S)-2,5-Diazabicyclo[2.2.1]hept-2-yl]pyridin-4-yl}-6-methyl-N-pyrazin-2-yl-1H-indazol-3-amine] | 8.22 | 6.85
COc1ccc2c(Nc3cnccn3)nn(-c3cc(N4C[C@@H]5C[C@H]4CN5)ncn3)c2c1 [Example 56, 1-{6-[(1S,4S)-2,5-diazabicyclo[2.2.1]hept-2-yl]pyrimidin-4-yl}-6-methoxy-N-pyrazin-2-yl-1H-indazol-3-amine] | 7.82 | 6.75
c1cnc(Nc2nn(-c3ccnc(N4C[C@@H]5C[C@H]4CN5)c3)c3cc(C4CC4)ccc23)cn1 [Example 58, 6-cyclopropyl-1-{2-[(1S,4S)-2,5-diazabicyclo[2.2.1]hept-2-yl]pyridin-4-yl}-N-pyrazin-2-yl-1H-indazol-3-amine] | 8.40 | 6.58
COCCOc1ccc2c(Nc3cnccn3)nn(-c3ccnc(N4C[C@@H]5C[C@H]4CN5)c3)c2c1 [Example 61, 1-{2-[(1S,4S)-2,5-diazabicyclo[2.2.1]hept-2-yl]pyridin-4-yl}-6-(2-methoxyethoxy)-N-pyrazin-2-yl-1H-indazol-3-amine] | 7.92 | 6.87
COc1ccc2c(Nc3cnccn3)nn(-c3ccnc(N4CCCNCC4)c3)c2c1 [Example 62, 1-[2-(1,4-diazepan-1-yl)pyridin-4-yl]-6-methoxy-N-pyrazin-2-yl-1H-indazol-3-amine] | 7.77 | 6.77
Oc1ccc2c(Nc3cnccn3)nn(-c3cncc(N4C[C@@H]5C[C@H]4CN5)c3)c2c1 [Example 63, 1-{5-[(1S,4S)-2,5-Diazabicyclo[2.2.1]hept-2-yl]pyridin-3-yl}-3-(pyrazin-2-ylamino)-1H-indazol-6-ol] | 7.96 | 6.44
c1ccc2c(c1)c(Nc1cnccn1)nn2-c1cc(N2C[C@@H]3C[C@H]2CN3)ccn1 [Example 69, 1-{4-[(1S,4S)-2,5-Diazabicyclo[2.2.1]hept-2-yl]pyridin-2-yl}-N-pyrazin-2-yl-1H-indazol-3-amine] | 7.89 | 6.58
Cc1ccc2c(Nc3cnccn3)nn(-c3cncc(N4C[C@@H]5C[C@H]4CN5)c3)c2c1 [Example 71, 1-{5-[(1S,4S)-2,5-diazabicyclo[2.2.1]hept-2-yl]pyridin-3-yl}-6-methyl-N-pyrazin-2-yl-1H-indazol-3-amine] | 8.30 | 6.95
COc1ccc2c(Nc3cnccn3)nn(-c3ccnc(N4CCNC[C@@H]4C)c3)c2c1 [Example 76, 6-Methoxy-1-{2-[(2S)-2-methylpiperazin-1-yl]pyridin-4-yl}-N-pyrazin-2-yl-1H-indazol-3-amine] | 7.96 | 6.86
Oc1ccc2c(Nc3cnccn3)nn(-c3ccnc(N4CCCNCC4)c3)c2c1 [Example 86, 1-[2-(1,4-diazepan-1-yl)pyridin-4-yl]-3-(pyrazin-2-ylamino)-1H-indazol-6-ol] | 7.82 | 6.58
Cc1ccnc(Nc2nn(-c3ccnc(N4C[C@@H]5C[C@H]4CN5)c3)c3cc(O)ccc23)c1 [Example 88, 1-{2-[(1S,4S)-2,5-diazabicyclo[2.2.1]hept-2-yl]pyridin-4-yl}-3-[(4-methylpyridin-2-yl)amino]-1H-indazol-6-ol] | 8.30 | 6.44
COc1ccc2c(Nc3cnccn3)nn(-c3cccc(N4C[C@@H]5C[C@H]4CN5)c3)c2c1 [Example 89, 1-{3-[(1S,4S)-2,5-diazabicyclo[2.2.1]hept-2-yl]phenyl}-6-methoxy-N-pyrazin-2-yl-1H-indazol-3-amine] | 7.80 | 6.80
